# Laboratory results from PubChem BioAssay AID179 (DTP/NCI, 2004).
# Calls of active or inactive are those of the source.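 How the source made its calls: active means compounds giving half or more protection of infected cells from virus-caused growth loss, again on retest; inactive means the rest.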 Where a SMILES comes first, the peptide text is derived from it. The star is where a group is joined. Boc = CC(C)(C)OC(=O)*
# System: CEM cells HIV-1 protection, formazan growth assay
# Assay: NCI AIDS Antiviral Assay
# Conditions: for IC50: measured here: growth of uninfected CEM cells
# Outline: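 Protection of CEM cells against HIV-1 measured as cell growth via soluble formazan read-out, with five concentrations tested on both infected and uninfected cells; failure to protect may reflect toxicity.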
Structure (SMILES),EC50 [µM],IC50 [µM],outcome
NS(=O)(=O)c1ccc(Nc2c3ccccc3nc3ncccc23)cc1,> 200,> 200,–
Cc1nc2ccc(Cl)cc2c2c1CCS2,> 200,117,–
Clc1ccc(C2=NOC(C3CCCCC3)C2)cc1 (stereo unspecified),> 38,> 38,–
CCOP(=O)(OCC)/C(C#N)=C\c1cccc2ccccc12,> 83.2,> 83.2,–
CSc1n[nH]c(NC(=O)c2ccc(Cl)cc2)n1,> 19.5,> 19.5,–
O=P1(Nc2ccccc2)NCCCO1 (stereo unspecified),> 200,> 200,–
O=C1c2ccoc2C(=O)c2oc(=O)ccc21,> 102,5.75,–
CCOCC(NC(=O)C(CC(C)C)NC(=O)OC(C)(C)C)C(N)=O (stereo not drawn) (Boc-Leu-Ser(Et)-NH2; configuration not given here),> 200,> 200,–
N#CC(=Nc1ccccc1N(C(=O)c1ccccc1)C(=O)c1ccccc1)c1ccccc1,> 17,> 17,–
c1ccc(-c2nnc(-c3nn(-c4ccccc4)c4nc5ccccc5nc34)o2)cc1,–,–,inactive
N#CCCN(C(=O)Nc1ccc(NC(=O)N(CCC#N)c2ccccc2)cc1)c1ccccc1,> 200,> 200,–
Cc1ccc(NC(=O)CC(=O)N2N=C(N3CCCCC3)CC2c2ccccc2)cc1 (stereo unspecified),> 200,> 200,–
CC(=O)OC1CC2C3(C)CC4O[C@@](C)(O)CC(C)C4[C@@]3(C)CC[C@]23C[C@@]32CC[C@H](OC3OCC(O)C(O)C3O)C(C)(C)C12 (stereo partly specified),> 53.7,22.4,–
O=c1[nH]oc2ccccc12,> 200,> 200,–
CC(=S)N/C=C(\C#N)c1nc2ccccc2s1,> 200,107,–
O=C(/C=C/c1ccc(O)c(O)c1)OCCc1ccc2ccccc2c1,> 200,4.68,–
O=C(CC(C(=O)c1ccco1)c1ccsc1)c1ccco1 (stereo unspecified),> 200,107,–
CC(=O)Nn1c(Cc2ccc(Cl)cc2)nn(C)c1=O,–,–,inactive
COc1ccc(-c2cc(-c3ccco3)c(C#N)c(=O)n2C2OC(OC(=O)c3ccccc3)C(OC(=O)c3ccccc3)C2OC(=O)c2ccccc2)cc1 (stereo unspecified),> 7.24,> 7.24,–
COc1cc2c3c(c1)[nH]c(=S)n3C(=O)C(c1ccccc1)S2 (stereo unspecified),> 200,40.7,–
CCN(CC)c1ccc(/C=C2\CCc3ccc([N+](=O)[O-])cc3C2=O)cc1,> 20,1.07,–
C/C(=C(/SS/C(C(=O)O)=C(/C)c1cccc(O)c1)C(=O)O)c1cccc(O)c1,> 200,135,–

Structure (SMILES),EC50 [µM],IC50 [µM],outcome
CCOC(=O)CC1(CC(=O)OCC)C(=O)N(C)c2ccccc21,> 200,> 200,–
Cc1cccc(N2C(=O)C(=O)C(c3nc4ccccc4s3)/C(=N/NC(=S)NN)C2=O)c1C (stereo unspecified),> 269,> 269,–
CC(O)C1(CNc2cc(Cl)nc(N)n2)CCCCC1 (stereo unspecified),> 200,85.1,–
Brc1ccc2[nH]c3nc(N/N=C/c4cccnc4)nnc3c2c1,> 200,> 200,–
CCOC(=O)c1cc(C2CCN(Cc3ccccc3)C2=O)c(C(=O)C(=[N+]=[N-])C(C)=O)[nH]1 (stereo unspecified),> 200,> 200,–
CC1CC2CC(=O)CC3(C1)C2CCCN3CCCO (stereo unspecified),–,–,inactive
Cc1nc(-n2nc(-c3ccccc3)cc2-c2ccccc2)sc1C(=O)CC(=O)C(=O)Nc1ccc(O)cc1,> 347,> 347,–
CCOC(=O)c1c2c(n3ccccc13)C(=O)C(C)(C(=O)OCC)S2 (stereo unspecified),–,–,active
COc1cccc(C2c3cc4c(cc3OC(N3CCCC3)C2C)OCO4)c1 (stereo unspecified),> 200,3.8,–
CCOc1nc(-c2ccccc2)cc(-c2ccc(N3CCOCC3)cc2)c1C#N,> 200,112,–
O=C(O)CNCc1c2ccccc2[n+]([O-])c2ccccc12,–,–,inactive
COc1cc(C2c3cc4c(cc3OC3(N5CCCC5)CCCC23)OCO4)cc(OC)c1OC (stereo unspecified),> 550,2.82,–
COC(=O)C(/C(=N\O)C(=O)Nc1cccc(Cl)c1C)c1cnc2ccccc2n1 (stereo unspecified),> 17.4,> 17.4,–
Cn1cc(C2(C)CC(C)(C)c3c2n(C)c2ccccc32)c2ccccc21 (stereo unspecified),> 55,47.9,–
C/C(=N/NC(=S)Nc1cccc(Cl)c1)c1ccccn1,> 0.2,0.0851,–
CCCCN=c1ssc(=O)n1CCCC,> 200,26.3,–
O=C1c2ccccc2C2CCC1c1ccccc12 (stereo unspecified),> 32.4,26.3,–
Cn1c(=S)[nH]n(CCOc2ccccc2)c1=S,> 200,> 200,–
CCCCN(CCCC)CC(=O)Nc1ccc(C(=O)OCC(C)C)cc1,> 200,> 200,–
Nc1ncnc2c1ncn2C1OC(COC2C(O)C(OC3OC(CO)C(O)C(O)C3N)C(O)C(OS(=O)(=O)O)C2OC(=O)[C@@H](N)CO)C(O)C1O (stereo partly specified),> 200,> 200,–
COC1=CC(=O)C2C(C1=O)C(c1ccc(Cl)cc1)[C@@H]2C (stereo partly specified),> 170,28.2,–
CCC(O)(COC(N)=O)c1ccccc1 (stereo unspecified),> 200,> 200,–

Structure (SMILES),EC50 [µM],IC50 [µM],outcome
CCOC(=O)C1=CN/C(=C(/C)C(=O)OC)SC1C(=O)OCC (stereo unspecified),> 200,37.2,–
CN/N=C(/CC(=O)c1sc(NNC(C)=O)nc1C)C(=O)Nc1ccc(OC)cc1OC,> 79.4,> 79.4,–
CCCOc1nc(N)c2cnn(C3CCCCO3)c2n1 (stereo unspecified),> 912,550,–
C=C(C(=C)N1N=NC2C3CCC(C3)C21)N1N=NC2C3CCC(C3)C21 (stereo unspecified),> 2.34,> 2.34,–
O=C1NC(=O)C(=Cc2cccc(Cl)c2)C(=O)N1,> 145,> 145,–
CC1=NNC(N)=N/C1=C\C(Sc1ccc(Cl)cc1)c1ccc(Cl)cc1Cl (stereo unspecified),> 112,18.6,–
CCN1c2nc3ccccc3nc2N(CC)c2nc3ccccc3nc21,> 200,41.7,–
O=C1CN(Cc2ccccc2)CC(=O)N2C(c3ccccc3)CCCN12 (stereo unspecified),–,–,inactive
Clc1ccc(C[P+](c2ccccc2)(c2ccccc2)c2ccccc2)cc1Cl,> 200,3.02,–
COC(=O)C(/C(=N/NC(N)=O)C(=O)Nc1c(C)cccc1C(C)(C)C)c1nc2ccc(Cl)cc2[nH]c1=O (stereo unspecified),–,–,inactive
CCn1c(=O)c(C(=O)O)c(Cl)c2cc3c(cc21)OCO3,–,–,inactive
Cc1ccc2[nH]c(N(C)C)nc2c2nc(Cl)nc1-2,> 200,117,–
O=C(NC1CCCC1=O)c1ccccc1 (stereo unspecified),–,–,inactive
S=C(NNC1=NCCCN1)Nc1ccccc1,> 200,12.6,–
CC1(C)C(OC(=O)c2ccccc2)C[C@]23CCC[C@](C)(C[C@@H](O)C12)C3 (stereo partly specified),> 200,24,–
CCOC(=O)c1sc(SSc2sc(C(=O)OCC)c(C)c2[N+](=O)[O-])c([N+](=O)[O-])c1C,> 200,138,–
C[C@H](CCC(=O)O)[C@H]1CC[C@H]2[C@@H]3[C@@H](O)C[C@@H]4C[C@H](O)CC[C@]4(C)[C@H]3C[C@H](O)[C@]12C,> 200,> 200,–
N#CC(NNC(=O)c1ccccc1O)c1c(O)ccc2ccccc12 (stereo unspecified),> 40.7,3.8,–
COc1ccccc1/C=C1\Cc2ccccc2C1=O,> 20.9,> 20.9,–
CC1=NOC(=O)C12CC2,> 200,> 200,–
CC1=N/C(=C\c2cccc(Br)c2)C(=O)O1,> 97.7,66.1,–
